{"source": "paper PMC9234962", "about": "“Optimization of Peptide Linker-Based Fluorescent Ligands for the Histamine H1 Receptor” (Journal of Medicinal Chemistry, 2022)", "target": "Nluc-H1R (Homo sapiens, UniProt P35367)", "sequence (P35367 whole entry)": "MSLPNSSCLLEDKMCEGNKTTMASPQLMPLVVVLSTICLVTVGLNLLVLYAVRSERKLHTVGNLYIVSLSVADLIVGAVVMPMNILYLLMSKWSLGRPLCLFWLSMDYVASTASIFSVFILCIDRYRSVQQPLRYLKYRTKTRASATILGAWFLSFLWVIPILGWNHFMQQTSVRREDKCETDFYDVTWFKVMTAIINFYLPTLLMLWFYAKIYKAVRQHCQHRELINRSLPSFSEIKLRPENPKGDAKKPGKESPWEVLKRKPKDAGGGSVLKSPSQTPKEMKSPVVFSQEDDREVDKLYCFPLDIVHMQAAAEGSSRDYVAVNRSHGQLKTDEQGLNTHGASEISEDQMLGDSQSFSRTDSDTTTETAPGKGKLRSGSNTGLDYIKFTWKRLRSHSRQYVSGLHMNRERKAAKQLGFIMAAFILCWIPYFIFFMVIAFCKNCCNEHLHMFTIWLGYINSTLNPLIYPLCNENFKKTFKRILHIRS", "assay": "NanoBRET competition binding assay (displacement of 1) on Nluc-H1R expressing HEK293T cells", "settings": "displacement of 1 (25 nM, KD = 8 nM), whole HEK293T cells, Cheng–Prusoff; for pKi: mean ± SEM, three experiments", "note": "Square brackets hold non-standard residues; d marks the D form. Peptide text beside a SMILES is read from it. * marks the point of attachment. Propanoyl(3-Pip(4-O-2-BnPh)) = O=C(CCN1CCC(Oc2ccccc2Cc2ccccc2)CC1)*", "data": [{"molecule": "C[C@H](NC(=O)CCN1CCC(Oc2ccccc2Cc2ccccc2)CC1)C(=O)N[C@@H](C)C(=O)N[C@@H](C)C(=O)N[C@H](Cc1ccccc1)C(N)=O", "note": "[Compound 8a, (S)-N-((R)-1-Amino-1-oxo-3-phenylpropan-2-yl)-2-((S)-2-((S)-2-(3-(4-(2-benzylphenoxy)piperidin-1-yl)-propana-mido)propanamido)propanamido)propanamide] ({Propanoyl(3-Pip(4-O-2-BnPh))}-AAA[dF]-NH2)", "values": [{"measurement": "Ki", "value": 912, "unit": "nM"}, {"measurement": "pKi", "value": "6.04 ± 0.16"}]}, {"molecule": "C[C@H](NC(=O)CNC(=O)CCN1CCC(Oc2ccccc2Cc2ccccc2)CC1)C(=O)N[C@@H](C)C(=O)N[C@H](Cc1ccccc1)C(N)=O", "note": "[Compound 8b, (S)-N-((R)-1-Amino-1-oxo-3-phenylpropan-2-yl)-2-((S)-2-(2-(3-(4-(2-benzylphenoxy)piperidin-1-yl)propanamido)acetamido)propanamido)propanamide] ({Propanoyl(3-Pip(4-O-2-BnPh))}-GAA[dF]-NH2)", "values": [{"measurement": "Ki", "value": 513, "unit": "nM"}, {"measurement": "pKi", "value": "6.29 ± 0.21"}]}, {"molecule": "CC(C)[C@H](NC(=O)CCN1CCC(Oc2ccccc2Cc2ccccc2)CC1)C(=O)N[C@@H](C)C(=O)N[C@@H](C)C(=O)N[C@H](Cc1ccccc1)C(N)=O", "note": "[Compound 8c, (S)-N-((S)-1-(((S)-1-(((R)-1-Amino-1-oxo-3-phenylpropan-2-yl)amino)-1-oxopropan-2-yl)amino)-1-oxopropan-2-yl)-2-(3-(4-(2-benzylphenoxy)piperidin-1-yl)propanamido)-3-methylbutanamide] ({Propanoyl(3-Pip(4-O-2-BnPh))}-VAA[dF]-NH2)", "values": [{"measurement": "Ki", "value": 158, "unit": "nM"}, {"measurement": "pKi", "value": "6.80 ± 0.12"}]}, {"molecule": "C[C@H](NC(=O)[C@H](C)NC(=O)[C@H](Cc1ccccc1)NC(=O)CCN1CCC(Oc2ccccc2Cc2ccccc2)CC1)C(=O)N[C@H](Cc1ccccc1)C(N)=O", "note": "[Compound 8d, (S)-N-((S)-1-(((S)-1-(((R)-1-Amino-1-oxo-3-phenylpropan-2-yl)amino)-1-oxopropan-2-yl)amino)-1-oxopropan-2-yl)-2-(3-(4-(2-benzylphenoxy)piperidin-1-yl)propanamido)-3-phenylpropanamide] ({Propanoyl(3-Pip(4-O-2-BnPh))}-FAA[dF]-NH2)", "values": [{"measurement": "Ki", "value": 1320, "unit": "nM"}, {"measurement": "pKi", "value": "5.88 ± 0.21"}]}, {"molecule": "C[C@H](NC(=O)[C@H](C)NC(=O)[C@H](Cc1ccc(O)cc1)NC(=O)CCN1CCC(Oc2ccccc2Cc2ccccc2)CC1)C(=O)N[C@H](Cc1ccccc1)C(N)=O", "note": "[Compound 8e, (S)-N-((S)-1-(((S)-1-(((R)-1-Amino-1-oxo-3-phenylpropan-2-yl)amino)-1-oxopropan-2-yl)amino)-1-oxopropan-2-yl)-2-(3-(4-(2-benzylphenoxy)piperidin-1-yl)propanamido)-3-(4-hydroxyphenyl)propanamide] ({Propanoyl(3-Pip(4-O-2-BnPh))}-YAA[dF]-NH2)", "values": [{"measurement": "Ki", "value": 1180, "unit": "nM"}, {"measurement": "pKi", "value": "5.93 ± 0.17"}]}, {"molecule": "C[C@H](NC(=O)[C@H](C)NC(=O)[C@H](CO)NC(=O)CCN1CCC(Oc2ccccc2Cc2ccccc2)CC1)C(=O)N[C@H](Cc1ccccc1)C(N)=O", "note": "[Compound 8f, (S)-N-((S)-1-(((S)-1-(((R)-1-Amino-1-oxo-3-phenylpropan-2-yl)amino)-1-oxopropan-2-yl)amino)-1-oxopropan-2-yl)-2-(3-(4-(2-benzylphenoxy)piperidin-1-yl)propanamido)-3-hydroxypropanamide] ({Propanoyl(3-Pip(4-O-2-BnPh))}-SAA[dF]-NH2)", "values": [{"measurement": "Ki", "value": 407, "unit": "nM"}, {"measurement": "pKi", "value": "6.39 ± 0.15"}]}, {"molecule": "C[C@H](NC(=O)[C@H](C)NC(=O)[C@H](CC(N)=O)NC(=O)CCN1CCC(Oc2ccccc2Cc2ccccc2)CC1)C(=O)N[C@H](Cc1ccccc1)C(N)=O", "note": "[Compound 8g, (S)-N-((S)-1-(((S)-1-(((R)-1-Amino-1-oxo-3-phenylpropan-2-yl)amino)-1-oxopropan-2-yl)amino)-1-oxopropan-2-yl)-2-(3-(4-(2-benzylphenoxy)piperidin-1-yl)-propanamido)succinamide] ({Propanoyl(3-Pip(4-O-2-BnPh))}-NAA[dF]-NH2)", "values": [{"measurement": "Ki", "value": 562, "unit": "nM"}, {"measurement": "pKi", "value": "6.25 ± 0.20"}]}, {"molecule": "C[C@H](NC(=O)[C@H](C)NC(=O)[C@H](Cc1cnc[nH]1)NC(=O)CCN1CCC(Oc2ccccc2Cc2ccccc2)CC1)C(=O)N[C@H](Cc1ccccc1)C(N)=O", "note": "[Compound 8h, (S)-N-((S)-1-(((S)-1-(((R)-1-Amino-1-oxo-3-phenylpropan-2-yl)amino)-1-oxopropan-2-yl)amino)-1-oxopropan-2-yl)-2-(3-(4-(2-benzylphenoxy)piperidin-1-yl)propanamido)-3-(1H-imidazol-5-yl)propanamide] ({Propanoyl(3-Pip(4-O-2-BnPh))}-HAA[dF]-NH2)", "values": [{"measurement": "Ki", "value": 933, "unit": "nM"}, {"measurement": "pKi", "value": "6.03 ± 0.13"}]}, {"molecule": "C[C@H](NC(=O)[C@H](C)NC(=O)[C@H](CCCCN)NC(=O)CCN1CCC(Oc2ccccc2Cc2ccccc2)CC1)C(=O)N[C@H](Cc1ccccc1)C(N)=O", "note": "[Compound 8i, (S)-6-Amino-N-((S)-1-(((S)-1-(((R)-1-amino-1-oxo-3-phenylpropan-2-yl)amino)-1-oxopropan-2-yl)-amino)-1-oxopropan-2-yl)-2-(3-(4-(2-benzylphenoxy)piperidin-1-yl)-propanamido)hexanamide] ({Propanoyl(3-Pip(4-O-2-BnPh))}-KAA[dF]-NH2)", "values": [{"measurement": "Ki", "value": 1620, "unit": "nM"}, {"measurement": "pKi", "value": "5.79 ± 0.18"}]}, {"molecule": "C[C@H](NC(=O)[C@H](C)NC(=O)[C@H](CC(=O)O)NC(=O)CCN1CCC(Oc2ccccc2Cc2ccccc2)CC1)C(=O)N[C@H](Cc1ccccc1)C(N)=O", "note": "[Compound 8j, (S)-4-(((S)-1-(((S)-1-(((R)-1-Amino-1-oxo-3-phenylpropan-2-yl)amino)-1-oxopropan-2-yl)amino)-1-oxopropan-2-yl)amino)-3-(3-(4-(2-benzylphenoxy)piperidin-1-yl)propanamido)-4-oxobutanoic Acid] ({Propanoyl(3-Pip(4-O-2-BnPh))}-DAA[dF]-NH2)", "values": [{"measurement": "Ki", "value": 1020, "unit": "nM"}, {"measurement": "pKi", "value": "5.99 ± 0.24"}]}, {"molecule": "CC(C)[C@H](NC(=O)CCN1CCC(Oc2ccccc2Cc2ccccc2)CC1)C(=O)NCC(=O)N[C@@H](C)C(=O)N[C@H](Cc1ccccc1)C(N)=O", "note": "[Compound 9a, (S)-N-(2-(((S)-1-(((R)-1-Amino-1-oxo-3-phenylpropan-2-yl)amino)-1-oxopropan-2-yl)amino)-2-oxoethyl)-2-(3-(4-(2-benzylphenoxy)piperidin-1-yl)propanamido)-3-methylbutanamide] ({Propanoyl(3-Pip(4-O-2-BnPh))}-VGA[dF]-NH2)", "values": [{"measurement": "Ki", "value": 501, "unit": "nM"}, {"measurement": "pKi", "value": "6.30 ± 0.07"}]}, {"molecule": "CC(C)[C@H](NC(=O)CCN1CCC(Oc2ccccc2Cc2ccccc2)CC1)C(=O)N[C@H](C(=O)N[C@@H](C)C(=O)N[C@H](Cc1ccccc1)C(N)=O)C(C)C", "note": "[Compound 9b, (S)-N-((S)-1-(((R)-1-Amino-1-oxo-3-phenylpropan-2-yl)amino)-1-oxopropan-2-yl)-2-((S)-2-(3-(4-(2-benzylphenoxy)piperidin-1-yl)propanamido)-3-methylbutanamido)-3-methylbutanamide] ({Propanoyl(3-Pip(4-O-2-BnPh))}-VVA[dF]-NH2)", "values": [{"measurement": "Ki", "value": 372, "unit": "nM"}, {"measurement": "pKi", "value": "6.43 ± 0.06"}]}, {"molecule": "CC(C)[C@H](NC(=O)CCN1CCC(Oc2ccccc2Cc2ccccc2)CC1)C(=O)N[C@@H](Cc1ccccc1)C(=O)N[C@@H](C)C(=O)N[C@H](Cc1ccccc1)C(N)=O", "note": "[Compound 9c, (S)-N-((S)-1-(((S)-1-(((R)-1-Amino-1-oxo-3-phenylpropan-2-yl)amino)-1-oxopropan-2-yl)amino)-1-oxo-3-phenylpropan-2-yl)-2-(3-(4-(2-benzylphenoxy)piperidin-1-yl)-propanamido)-3-methylbutanamide] ({Propanoyl(3-Pip(4-O-2-BnPh))}-VFA[dF]-NH2)", "values": [{"measurement": "Ki", "value": 794, "unit": "nM"}, {"measurement": "pKi", "value": "6.10 ± 0.20"}]}, {"molecule": "CC(C)[C@H](NC(=O)CCN1CCC(Oc2ccccc2Cc2ccccc2)CC1)C(=O)N[C@@H](Cc1ccc(O)cc1)C(=O)N[C@@H](C)C(=O)N[C@H](Cc1ccccc1)C(N)=O", "note": "[Compound 9d, (S)-N-((S)-1-(((S)-1-(((R)-1-Amino-1-oxo-3-phenylpropan-2-yl)amino)-1-oxopropan-2-yl)amino)-3-(4-hydroxyphenyl)-1-oxopropan-2-yl)-2-(3-(4-(2-benzylphenoxy)-piperidin-1-yl)propanamido)-3-methylbutanamide] ({Propanoyl(3-Pip(4-O-2-BnPh))}-VYA[dF]-NH2)", "values": [{"measurement": "Ki", "value": 437, "unit": "nM"}, {"measurement": "pKi", "value": "6.36 ± 0.04"}]}, {"molecule": "CC(C)[C@H](NC(=O)CCN1CCC(Oc2ccccc2Cc2ccccc2)CC1)C(=O)N[C@@H](CO)C(=O)N[C@@H](C)C(=O)N[C@H](Cc1ccccc1)C(N)=O", "note": "[Compound 9e, (S)-N-((S)-1-(((S)-1-(((R)-1-Amino-1-oxo-3-phenylpropan-2-yl)amino)-1-oxopropan-2-yl)amino)-3-hydroxy-1-oxo-propan-2-yl)-2-(3-(4-(2-benzylphenoxy)piperidin-1-yl)-propanamido)-3-methylbutanamide] ({Propanoyl(3-Pip(4-O-2-BnPh))}-VSA[dF]-NH2)", "values": [{"measurement": "Ki", "value": 151, "unit": "nM"}, {"measurement": "pKi", "value": "6.82 ± 0.06"}]}, {"molecule": "CC(C)[C@H](NC(=O)CCN1CCC(Oc2ccccc2Cc2ccccc2)CC1)C(=O)N[C@@H](CC(N)=O)C(=O)N[C@@H](C)C(=O)N[C@H](Cc1ccccc1)C(N)=O", "note": "[Compound 9f, (S)-N1-((S)-1-(((R)-1-Amino-1-oxo-3-phenylpropan-2-yl)amino)-1-oxopropan-2-yl)-2-((S)-2-(3-(4-(2-benzylphenoxy)piperidin-1-yl)propanamido)-3-methylbutanamido)succinamide] ({Propanoyl(3-Pip(4-O-2-BnPh))}-VNA[dF]-NH2)", "values": [{"measurement": "Ki", "value": 832, "unit": "nM"}, {"measurement": "pKi", "value": "6.08 ± 0.03"}]}, {"molecule": "CC(C)[C@H](NC(=O)CCN1CCC(Oc2ccccc2Cc2ccccc2)CC1)C(=O)N[C@@H](Cc1cnc[nH]1)C(=O)N[C@@H](C)C(=O)N[C@H](Cc1ccccc1)C(N)=O", "note": "[Compound 9g, (S)-N-((S)-1-(((S)-1-(((R)-1-Amino-1-oxo-3-phenylpropan-2-yl)amino)-1-oxopropan-2-yl)amino)-3-(1H-imidazol-5-yl)-1-oxopropan-2-yl)-2-(3-(4-(2-benzylphenoxy)piperidin-1-yl)propanamido)-3-methylbutanamide] ({Propanoyl(3-Pip(4-O-2-BnPh))}-VHA[dF]-NH2)", "values": [{"measurement": "Ki", "value": 692, "unit": "nM"}, {"measurement": "pKi", "value": "6.16 ± 0.06"}]}]}
